The source made the active and inactive calls. How the calls were made is not given here.

The test system of the data set is rodent carcinogenicity bioassays, tumor incidence. Put plainly: CCRIS carcinogenicity studies. An outline of the steps: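 NCI-built, expert-reviewed records of carcinogenicity and related test outcomes (mutagenicity, tumor promotion/inhibition) compiled from published and report sources, historical span 1985-2011, not updated.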

`O=c1[nH]c(=O)n(O)c2nc[nH]c12`: the carcinogen call is, setting by setting: (Species: RAT, Strain/Sex: SPRAGUE-DAWLEY/FEMALE, Route: SUBCUTANEOUS, Dose: 3-7 MG/SUSPENDED IN CARBOXYMETHYLCELLULOSE IN SALINE 1/WK FOR 22-26 WK, Tumor Site: Type of Lesion: INJECTION SITE, LIVER: HYPERPLASTIC NODULE OR HEPATOMA) “active; positive”; (Species: RAT, Strain/Sex: SPRAGUE-DAWLEY/MALE, Route: SUBCUTANEOUS, Dose: 0, 0.1, 1.0 MG IN CARBOXYMETHYLCELLULOSE 3/WK FOR 8 WK, Dose: 0, 0.1, 1.0 MG IN CARBOXYMETHYLCELLULOSE 3/WK FOR 8 WK, Tumor Site: Type of Lesion: INJECTION SITE: SARCOMA, FIBROMA) “active; positive”; (Species: RAT, Strain/Sex: WISTAR/MALE, FEMALE, Route: SUBCUTANEOUS, Dose: 3-7 MG/SUSPENDED IN CARBOXYMETHYLCELLULOSE IN SALINE 1/WK FOR 22-26 WK, Tumor Site: Type of Lesion: INJECTION SITE, LIVER: HYPERPLASTIC NODULE OR HEPATOMA) “active; positive”; (Species: RAT, Strain/Sex: WISTAR/MALE, Route: ORAL, Dose: 7 MG IN CARBOXYMETHYLCELLULOSE IN SALINE 1/WK FOR 22 WK, Tumor Site: Type of Lesion: LIVER) “active; positive”; (Species: RAT, Strain/Sex: WISTAR/MALE, Route: SUBCUTANEOUS, Dose: 0, 0.1, 1.0 MG IN CARBOXYMETHYLCELLULOSE 3/WK FOR 8 WK, Dose: 0, 0.1, 1.0 MG IN CARBOXYMETHYLCELLULOSE 3/WK FOR 8 WK, Tumor Site: Type of Lesion: INJECTION SITE: SARCOMA, FIBROMA) “active; positive”.

With `C=Cc1ccc(C)cc1`, the carcinogen call by setting is: (Species: MOUSE, Strain/Sex: SWISS/FEMALE, Route: INTRAGASTRIC, Dose: 0, 10, 50, 250 MG/KG IN OLIVE OIL 1/D, 5 D/WK FOR 78 WK (STUDY DURATION: 83 WK), Dose: 0, 10, 50, 250 MG/KG IN OLIVE OIL 1/D, 5 D/WK FOR 78 WK (STUDY DURATION: 83 WK)) “inactive; negative”; (Species: MOUSE, Strain/Sex: SWISS/MALE, Route: INTRAGASTRIC, Dose: 0, 10, 50, 250 MG/KG IN OLIVE OIL 1/D, 5 D/WK FOR 78 WK (STUDY DURATION: 83 WK), Dose: 0, 10, 50, 250 MG/KG IN OLIVE OIL 1/D, 5 D/WK FOR 78 WK (STUDY DURATION: 83 WK)) “inactive; negative”; (Species: RAT, Strain/Sex: SPRAGUE-DAWLEY/FEMALE, Route: INTRAGASTRIC, Dose: 0, 10, 50, 250, 500 MG/KG IN OLIVE OIL 1/D, 5 D/WK FOR 104 WK (STUDY DURATION: 123 WK), Dose: 0, 10, 50, 250, 500 MG/KG IN OLIVE OIL 1/D, 5 D/WK FOR 104 WK (STUDY DURATION: 123 WK)) “inactive; negative”; (Species: RAT, Strain/Sex: SPRAGUE-DAWLEY/MALE, Route: INTRAGASTRIC, Dose: 0, 10, 50, 250, 500 MG/KG IN OLIVE OIL 1/D, 5 D/WK FOR 104 WK (STUDY DURATION: 123 WK), Dose: 0, 10, 50, 250, 500 MG/KG IN OLIVE OIL 1/D, 5 D/WK FOR 104 WK (STUDY DURATION: 123 WK)) “inactive; negative”.

Consider `CCc1cc(C(N)=S)ccn1`, for which the carcinogen call runs as follows: (Species: MOUSE, Route: ORAL, Tumor Site: Type of Lesion: THYROID GLAND) “active; positive”; (Species: MOUSE, Strain/Sex: B6C3F1/FEMALE, Route: ORAL, Dose: 0, 1000, 2000 PPM IN DIET, Dose: 0, 1000, 2000 PPM IN DIET) “inactive; negative”; (Species: MOUSE, Strain/Sex: B6C3F1/MALE, Route: ORAL, Dose: 0, 1000, 2000 PPM IN DIET, Dose: 0, 1000, 2000 PPM IN DIET) “inactive; negative”; (Species: RAT, Strain/Sex: F344/FEMALE, Route: ORAL, Dose: 0, 1500, 3000 PPM IN DIET, Dose: 0, 1500, 3000 PPM IN DIET) “inactive; negative”; (Species: RAT, Strain/Sex: F344/MALE, Route: ORAL, Dose: 0, 1500, 3000 PPM IN DIET, Dose: 0, 1500, 3000 PPM IN DIET) “inactive; negative”.

With `CCCCC/C=N/N(C)C=O`, the carcinogen call is, setting by setting: (Species: MOUSE, Strain/Sex: SWISS/FEMALE, Route: GAVAGE, Dose: 0, 50, 100 UG/G/BW IN 0.01 ML OF PROPYLENE GLYCOL 1/WK FOR 52 WK (STUDY DURATION: 130 WK), Dose: 0, 50, 100 UG/G/BW IN 0.01 ML OF PROPYLENE GLYCOL 1/WK FOR 52 WK (STUDY DURATION: 130 WK), Tumor Site: Type of Lesion: LUNG: ADENOMA OR ADENOCARCINOMA, LIVER: HEPATOMA OR CARCINOMA) “active; positive”; (Species: MOUSE, Strain/Sex: SWISS/MALE, Route: GAVAGE, Dose: 0, 50, 100 UG/G/BW IN 0.01 ML OF PROPYLENE GLYCOL 1/WK FOR 52 WK (STUDY DURATION: 130 WK), Dose: 0, 50, 100 UG/G/BW IN 0.01 ML OF PROPYLENE GLYCOL 1/WK FOR 52 WK (STUDY DURATION: 130 WK), Tumor Site: Type of Lesion: LUNG: ADENOMA AND ADENOCARCINOMA, PREPUTIAL GLAND: SQUAMOUS CELL PAPILLOMA OR SQUAMOUS CELL CARCINOMA OR ADENOMA) “active; positive”.

For `Nc1ccn([C@@H]2O[C@H](CO)[C@@H](O)C2O)c(=O)n1` (stereo partly specified), the carcinogen call is, setting by setting: (Species: RAT, Strain/Sex: SPRAGUE-DAWLEY/FEMALE, Route: INTRAPERITONEAL, Dose: 0, 5, 25 MG/KG IN PHYSIOLOGICAL SALINE 5/WK FOR 72 WK (STUDY DURATION: LIFETIME), Dose: 0, 5, 25 MG/KG IN PHYSIOLOGICAL SALINE 5/WK FOR 72 WK (STUDY DURATION: LIFETIME)) “inactive; negative”; (Species: RAT, Strain/Sex: SPRAGUE-DAWLEY/FEMALE, Route: INTRAPERITONEAL, Dose: 0, 500, 1500 MG/KG IN PHYSIOLOGICAL SALINE ON D 1, 3, 5 WITHIN 3 MO, CYCLE REPEATED 6 TIMES (STUDY DURATION: LIFETIME), Dose: 0, 500, 1500 MG/KG IN PHYSIOLOGICAL SALINE ON D 1, 3, 5 WITHIN 3 MO, CYCLE REPEATED 6 TIMES (STUDY DURATION: LIFETIME)) “inactive; negative”; (Species: RAT, Strain/Sex: SPRAGUE-DAWLEY/MALE, Route: INTRAPERITONEAL, Dose: 0, 5, 25 MG/KG IN PHYSIOLOGICAL SALINE 5/WK FOR 72 WK (STUDY DURATION: LIFETIME), Dose: 0, 5, 25 MG/KG IN PHYSIOLOGICAL SALINE 5/WK FOR 72 WK (STUDY DURATION: LIFETIME)) “inactive; negative”; (Species: RAT, Strain/Sex: SPRAGUE-DAWLEY/MALE, Route: INTRAPERITONEAL, Dose: 0, 500, 1500 MG/KG IN PHYSIOLOGICAL SALINE ON D 1, 3, 5 WITHIN 3 MO, CYCLE REPEATED 6 TIMES (STUDY DURATION: LIFETIME), Dose: 0, 500, 1500 MG/KG IN PHYSIOLOGICAL SALINE ON D 1, 3, 5 WITHIN 3 MO, CYCLE REPEATED 6 TIMES (STUDY DURATION: LIFETIME)) “inactive; negative”.

On to `CC(=O)[O-].CC(=O)[O-].[OH-].[OH-].[OH-].[OH-].[Pb+2].[Pb+2].[Pb+2]`, for which the carcinogen call is “active; positive” (Species: MOUSE, Strain/Sex: STRAIN-A/MALE,FEMALE, Route: INTRAPERITONEAL, Dose: 30, 75, 150 MG/KG 3/WK FOR 5 WK, Dose: 30, 75, 150 MG/KG 3/WK FOR 5 WK, Tumor Site: Type of Lesion: LUNG: ADENOMA); “active; positive” (Species: MOUSE, Strain/Sex: SWISS/MALE, Route: ORAL, Dose: 0.1% IN DIET FOR TWO YR, Tumor Site: Type of Lesion: KIDNEY: ADENOMA, CARCINOMA); “active; positive” (Species: RAT, Strain/Sex: SPRAGUE-DAWLEY/MALE, Route: ORAL, Dose: 1% IN DIET, Tumor Site: Type of Lesion: KIDNEY: ADENOMA, CARCINOMA, BRAIN: GLIOMA); “active; positive” (Species: RAT, Strain/Sex: WISTAR/MALE,FEMALE, Route: ORAL, Dose: 0.1, 1.0% IN DIET FOR UP TO 29 MO, Tumor Site: Type of Lesion: KIDNEY: CARCINOMA).

For `CN(Cc1ccccc1)N=O`, the carcinogen call by setting is: (Species: MOUSE, Strain/Sex: CD-1/MALE, FEMALE, Route: INTRAPERITONEAL, Dose: 0, 4 MG/KG 2/WK FOR 12 WK, 8 MG/KG 2/WK FOR 6 WK, 16 MG/KG 2/WK FOR 3 WK FOR TOTAL DOSES OF 96 MG/KG (STUDY DURATION: 40, Dose: 0, 4 MG/KG 2/WK FOR 12 WK, 8 MG/KG 2/WK FOR 6 WK, 16 MG/KG 2/WK FOR 3 WK FOR TOTAL DOSES OF 96 MG/KG (STUDY DURATION: 40, Tumor Site: Type of Lesion: FORESTOMACH: PAPILLOMA, CARCINOMA) “active; positive”; (Species: RAT, Strain/Sex: SPRAGUE-DAWLEY/MALE, Route: GAVAGE, Dose: 0, 0.5, 2 MG/KG IN SALINE ONCE ADMINISTERED TO RATS MAINTAINED ON ZINC-DEFICIENT DIET (STUDY DURATION: 14 WK), Dose: 0, 0.5, 2 MG/KG IN SALINE ONCE ADMINISTERED TO RATS MAINTAINED ON ZINC-DEFICIENT DIET (STUDY DURATION: 14 WK), Tumor Site: Type of Lesion: ESOPHAGUS: TUMOR) “active; positive”.

For the origin of these results see PubChem BioAssay AID1259411 (Chemical Carcinogenesis Research Information System (CCRIS), 2018).
